Calls of active or inactive are those of the source. No cut-off for these calls is given here.
Tests used:
Bacillus cereus [1] = experiment: Antimicrobial activity against Bacillus cereus ATCC14579 assessed as absence of visible growth in presence of Rod-alpha measured after 20 hrs by broth dilution assay; type: functional, organism-based
Cell membrane [2] = experiment: Induction of inner membrane permeability in Micrococcus flavus NIZO B423 using DNA-binding stain propidium iodide by membrane integrity assay; type: subcellular
Listeria monocytogenes [3] = experiment: Antimicrobial activity against Listeria monocytogenes LMG 10470 assessed as absence of visible growth in presence of Rod-alpha measured after 20 hrs by broth dilution assay; type: functional, organism-based
Staphylococcus aureus [4] = experiment: Antimicrobial activity against methicillin-resistant Staphylococcus aureus assessed as absence of visible growth in presence of Rod-alpha measured after 20 hrs by broth dilution assay; type: functional, organism-based
Lactococcus lactis = experiment: Antimicrobial activity against Lactococcus lactis NZ9000 assessed as absence of visible growth measured after 20 hrs by broth dilution assay; type: functional, organism-based
Escherichia coli = experiment: Antimicrobial activity against Escherichia coli LMG 8223 assessed as absence of visible growth measured after 20 hrs by broth dilution assay; type: functional, organism-based
Cell membrane [5] = experiment: Induction of inner membrane permeability in Micrococcus flavus NIZO B423 using DNA-binding stain propidium iodide in presence of Rod alpha by membrane integrity assay
Enterococcus faecium [6] = experiment: Antimicrobial activity against Enterococcus faecium LMG 16003 assessed as absence of visible growth measured after 20 hrs by broth dilution assay; type: functional, organism-based
Enterococcus faecium [7] = experiment: Antimicrobial activity against Enterococcus faecium LMG 16003 assessed as absence of visible growth in presence of Rod-alpha measured after 20 hrs by broth dilution assay; type: functional, organism-based
Cell membrane [8] = experiment: Induction of outer membrane permeability in Escherichia coli using 1-N-Nphenylnaphthylamine fluorescent probe in presence of Rod alpha by microplate reader; type: subcellular
Micrococcus flavus = experiment: Antimicrobial activity against Micrococcus flavus NIZO B423 assessed as absence of visible growth measured after 20 hrs by broth dilution assay; type: functional, organism-based
Staphylococcus aureus [9] = experiment: Antimicrobial activity against Staphylococcus aureus LMG 15975 assessed as absence of visible growth measured after 20 hrs by broth dilution assay; type: functional, organism-based
Salmonella enterica = experiment: Antimicrobial activity against Salmonella enterica LMG 07233 assessed as absence of visible growth measured after 20 hrs by broth dilution assay; type: functional, organism-based
Bacillus subtilis = experiment: Antimicrobial activity against Bacillus subtilis 168 assessed as absence of visible growth measured after 20 hrs by broth dilution assay; type: functional, organism-based
Cell membrane [10] = experiment: Induction of outer membrane permeability in Escherichia coli using 1-N-Nphenylnaphthylamine fluorescent probe by microplate reader; type: subcellular
Listeria monocytogenes [11] = experiment: Antimicrobial activity against Listeria monocytogenes LMG 10470 assessed as absence of visible growth measured after 20 hrs by broth dilution assay; type: functional, organism-based
Staphylococcus aureus [12] = experiment: Antimicrobial activity against Staphylococcus aureus LMG 8224 assessed as absence of visible growth measured after 20 hrs by broth dilution assay; type: functional, organism-based
Bacillus cereus [13] = experiment: Antimicrobial activity against Bacillus cereus ATCC14579 assessed as absence of visible growth measured after 20 hrs by broth dilution assay; type: functional, organism-based
Cell membrane [14] = experiment: Induction of outer membrane permeability in Escherichia coli using 1-N-Nphenylnaphthylamine fluorescent probe in presence of Rod beta by microplate reader; type: subcellular
Enterococcus faecium [15] = experiment: Antimicrobial activity against Enterococcus faecium LMG 16003 assessed as absence of visible growth in presence of Rod-beta measured after 20 hrs by broth dilution assay; type: functional, organism-based
Cell membrane [16] = experiment: Induction of inner membrane permeability in Micrococcus flavus NIZO B423 using DNA-binding stain propidium iodide in presence of Rod beta by membrane integrity assay
Bacillus cereus [17] = experiment: Antimicrobial activity against Bacillus cereus ATCC14579 assessed as absence of visible growth in presence of Rod-beta measured after 20 hrs by broth dilution assay; type: functional, organism-based
Listeria monocytogenes [18] = experiment: Antimicrobial activity against Listeria monocytogenes LMG 10470 assessed as absence of visible growth in presence of Rod-beta measured after 20 hrs by broth dilution assay; type: functional, organism-based
Staphylococcus aureus [19] = experiment: Antimicrobial activity against methicillin-resistant Staphylococcus aureus assessed as absence of visible growth in presence of Rod-beta measured after 20 hrs by broth dilution assay; type: functional, organism-based
[20] = Binding affinity to externally added Lipid II (unknown origin) in Micrococcus flavus NIZO B423 broth assessed as decrease in antimicrobial activity against Micrococcus flavus by Spot-on-lawn assay

With C/C=C(/NC(=O)[C@@H](N)Cc1c[nH]c2ccccc12)C(=O)N1CCC[C@H]1C(=O)N[C@@H](C)C(=O)N[C@@H](CC(C)C)C(=O)N[C@H](C)C(=O)N[C@H](C(=O)N[C@H](C(=O)N[C@H](CC)C(=O)NCC(=O)N[C@@H](Cc1ccc(O)cc1)C(=O)N[C@H](C(=O)N[C@@H]1CSC[C@H](C(=O)N2CCC[C@H]2C(=O)N[C@H]2CCSC[C@H](C(=O)N[C@H]3CCSC[C@H](C(=O)O)NC(=O)[C@H](C)NC(=O)[C@H](CCCNC(=N)N)NC3=O)NC(=O)[C@H](C)NC(=O)[C@H]([C@@H](C)O)NC2=O)NC(=O)[C@H]([C@@H](C)O)NC(=O)[C@H](CC(N)=O)NC(=O)[C@H](CO)NC1=O)[C@@H](C)CC)[C@@H](C)CC)C(C)C the Activity (Bacillus cereus [1]) was “Active”, the Activity (Cell membrane [2]) was “inactive” and the Activity (Listeria monocytogenes [3]) was “Active”. For the same compound, the Activity (Staphylococcus aureus [4]) was “Active”, the Activity (Lactococcus lactis) was “inactive” and the Activity (Escherichia coli) was “inactive”. For the same compound, the Activity (Cell membrane [5]) was “Active”, the Activity (Enterococcus faecium [6]) was “inactive” and the Activity (Enterococcus faecium [7]) was “Active”. The Activity (Cell membrane [8]) was “Active”, the Activity (Micrococcus flavus) was “inactive” and the Activity (Staphylococcus aureus [9]) was “inactive”. The Activity (Salmonella enterica) was “inactive”, the Activity (Bacillus subtilis) was “inactive” and the Activity (Cell membrane [10]) was “inactive”. For the same compound, the Activity (Listeria monocytogenes [11]) was “inactive”, the Activity (Staphylococcus aureus [12]) was “inactive” and the Activity (Bacillus cereus [13]) was “inactive”.

For C/C=C(\NC(=O)[C@H](CC(N)=O)NC(=O)/C(=C/C)NC(=O)[C@@H]1CCSC[C@@H](N)C(=O)N1)C(=O)N[C@@H](Cc1ccccc1)C(=O)N[C@H](C)C(=O)N[C@@H](CC(C)C)C(=O)N[C@@H]1CSC[C@H](C(=O)N[C@H]2CCSC[C@H]3NC(=O)[C@H](CCC(=O)O)NC(=O)[C@H](CCCCN)NC(=O)[C@@H](CSC[C@H](C(=O)O)NC(=O)[C@H](Cc4c[nH]c5ccccc45)NC(=O)[C@H](C)NC(=O)[C@H](CCSC)NC3=O)NC(=O)[C@H](C(C)C)NC2=O)NC(=O)[C@H](Cc2c[nH]c3ccccc23)NC(=O)CNC(=O)CNC(=O)[C@H](CCCCN)NC(=O)[C@H](CC(N)=O)NC(=O)CNC(=O)[C@H](Cc2c[nH]c3ccccc23)NC(=O)[C@H](Cc2ccc(O)cc2)NC(=O)[C@H](CC(=O)O)NC1=O, the Activity (Cell membrane [14]) was “Active”, the Activity (Enterococcus faecium [15]) was “Active” and the Activity (Cell membrane [16]) was “Active”. The Activity (Cell membrane [2]) was “inactive”, the Activity (Lactococcus lactis) was “inactive” and the Activity (Escherichia coli) was “inactive”. For the same compound, the Activity (Enterococcus faecium [6]) was “inactive”, the Activity (Bacillus cereus [17]) was “Active” and the Activity (Micrococcus flavus) was “inactive”. For the same compound, the Activity (Staphylococcus aureus [9]) was “inactive”, the Activity (Listeria monocytogenes [18]) was “Active” and the Activity (Salmonella enterica) was “inactive”. For the same compound, the Activity (Staphylococcus aureus [19]) was “Active”, the Activity (Bacillus subtilis) was “inactive” and the Activity (Cell membrane [10]) was “inactive”. For the same compound, the Activity [20] was “Active”, the Activity (Listeria monocytogenes [11]) was “inactive” and the Activity (Staphylococcus aureus [12]) was “inactive”. The Activity (Bacillus cereus [13]) was “inactive”.

Reference: ChEMBL document CHEMBL6127067, “Discovery, Biosynthesis, and Characterization of Rodencin, a Two-Component Lanthipeptide, Harboring d-Amino Acids Introduced by the Unusual Dehydrogenase RodJA” (J Nat Prod, 2024)
